Test results published in patent US12275731B2, “Azaindole inhibitors of wild-type and mutant forms of LRRK2” (DANA-FARBER CANCER INSTITUTE, INC., priority 2018, dated 2025).

What was measured:
Assay in all cases: KinomeScan profiling
Assay type in all cases: binding
CDK4-cyclinD3 = CDK4-cyclinD3 (Homo sapiens, UniProt P11802); conditions: CDK4-cyclinD3, 1 μM; read-out: % control
How it was run: (§1)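 Selectivity was assessed by binding competition at 1 μM against 468 kinases. Values below 35% of control define an interaction.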

GRK2 = target: T1, GRK2 (Homo sapiens, UniProt P25098); conditions: GRK2, 1 μM; read-out: % control
T1 sequence (P25098 1-689): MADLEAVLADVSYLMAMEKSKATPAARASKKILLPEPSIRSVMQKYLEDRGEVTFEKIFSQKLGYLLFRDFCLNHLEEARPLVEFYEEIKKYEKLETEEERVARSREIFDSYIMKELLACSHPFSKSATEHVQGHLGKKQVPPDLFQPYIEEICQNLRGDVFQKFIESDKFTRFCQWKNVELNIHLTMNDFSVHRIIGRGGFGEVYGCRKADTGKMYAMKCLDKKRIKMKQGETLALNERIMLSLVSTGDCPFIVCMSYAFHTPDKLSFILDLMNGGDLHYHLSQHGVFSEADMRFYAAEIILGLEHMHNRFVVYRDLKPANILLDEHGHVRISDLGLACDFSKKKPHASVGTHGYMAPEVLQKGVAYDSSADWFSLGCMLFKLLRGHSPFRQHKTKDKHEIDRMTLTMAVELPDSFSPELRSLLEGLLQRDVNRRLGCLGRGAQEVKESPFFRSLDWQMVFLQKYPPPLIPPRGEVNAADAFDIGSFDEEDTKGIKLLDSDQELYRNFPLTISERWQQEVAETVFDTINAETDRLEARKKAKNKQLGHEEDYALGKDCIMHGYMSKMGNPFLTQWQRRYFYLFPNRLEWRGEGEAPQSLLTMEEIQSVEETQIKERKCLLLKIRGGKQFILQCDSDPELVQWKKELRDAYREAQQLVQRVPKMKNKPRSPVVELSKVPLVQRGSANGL
How it was run: as §1

[1] = target: T2, JAK1(JH2domain-pseudokinase) (Homo sapiens, UniProt P23458); conditions: read-out: % control
T2 construct: JAK1(JH2domain-pseudokinase); purchased KinomeScan®
T2 sequence (P23458 583-855 limits assumed): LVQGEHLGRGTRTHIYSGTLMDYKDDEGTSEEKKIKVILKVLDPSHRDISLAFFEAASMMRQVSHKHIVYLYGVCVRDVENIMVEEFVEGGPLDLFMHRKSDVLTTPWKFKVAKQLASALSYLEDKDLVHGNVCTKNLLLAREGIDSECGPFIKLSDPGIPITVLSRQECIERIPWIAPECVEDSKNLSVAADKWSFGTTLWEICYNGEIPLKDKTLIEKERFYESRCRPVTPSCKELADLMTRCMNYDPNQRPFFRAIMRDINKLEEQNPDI
How it was run: as §1

KIT(L576P) = target: T3, KIT(L576P) (Homo sapiens, UniProt P10721, L576P); conditions: read-out: % control
T3 construct: purchased KinomeScan®
T3 sequence (P10721 26-976 L576P): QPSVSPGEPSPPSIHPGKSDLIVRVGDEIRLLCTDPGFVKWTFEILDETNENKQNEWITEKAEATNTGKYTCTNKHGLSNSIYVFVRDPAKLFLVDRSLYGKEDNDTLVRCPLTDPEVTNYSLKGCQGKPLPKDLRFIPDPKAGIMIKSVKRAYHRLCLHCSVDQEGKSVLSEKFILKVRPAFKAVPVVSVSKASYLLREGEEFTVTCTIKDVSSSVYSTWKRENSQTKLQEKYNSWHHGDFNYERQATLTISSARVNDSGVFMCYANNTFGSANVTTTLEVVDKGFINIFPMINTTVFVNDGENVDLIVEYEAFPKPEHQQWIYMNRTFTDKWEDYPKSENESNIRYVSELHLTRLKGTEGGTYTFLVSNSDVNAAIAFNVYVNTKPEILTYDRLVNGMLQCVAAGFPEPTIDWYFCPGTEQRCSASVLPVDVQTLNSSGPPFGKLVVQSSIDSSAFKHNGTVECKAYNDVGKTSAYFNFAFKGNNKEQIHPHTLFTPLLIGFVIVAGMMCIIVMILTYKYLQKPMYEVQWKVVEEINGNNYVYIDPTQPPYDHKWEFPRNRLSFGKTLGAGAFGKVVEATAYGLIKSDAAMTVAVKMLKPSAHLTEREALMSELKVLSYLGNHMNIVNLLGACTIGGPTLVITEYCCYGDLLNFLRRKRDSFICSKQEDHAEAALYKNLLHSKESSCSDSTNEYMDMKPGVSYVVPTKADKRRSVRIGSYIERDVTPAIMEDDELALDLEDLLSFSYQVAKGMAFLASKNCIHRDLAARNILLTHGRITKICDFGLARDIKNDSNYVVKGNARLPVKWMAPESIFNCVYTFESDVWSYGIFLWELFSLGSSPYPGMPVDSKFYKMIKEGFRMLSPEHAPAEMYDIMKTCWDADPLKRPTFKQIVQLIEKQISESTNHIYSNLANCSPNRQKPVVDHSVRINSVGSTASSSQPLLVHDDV
How it was run: as §1

MET(Y1235D) = MET(Y1235D) (Homo sapiens, UniProt P08581, Y1235D); conditions: read-out: % control
Sequence of MET(Y1235D) (P08581 25-1390 Y1235D): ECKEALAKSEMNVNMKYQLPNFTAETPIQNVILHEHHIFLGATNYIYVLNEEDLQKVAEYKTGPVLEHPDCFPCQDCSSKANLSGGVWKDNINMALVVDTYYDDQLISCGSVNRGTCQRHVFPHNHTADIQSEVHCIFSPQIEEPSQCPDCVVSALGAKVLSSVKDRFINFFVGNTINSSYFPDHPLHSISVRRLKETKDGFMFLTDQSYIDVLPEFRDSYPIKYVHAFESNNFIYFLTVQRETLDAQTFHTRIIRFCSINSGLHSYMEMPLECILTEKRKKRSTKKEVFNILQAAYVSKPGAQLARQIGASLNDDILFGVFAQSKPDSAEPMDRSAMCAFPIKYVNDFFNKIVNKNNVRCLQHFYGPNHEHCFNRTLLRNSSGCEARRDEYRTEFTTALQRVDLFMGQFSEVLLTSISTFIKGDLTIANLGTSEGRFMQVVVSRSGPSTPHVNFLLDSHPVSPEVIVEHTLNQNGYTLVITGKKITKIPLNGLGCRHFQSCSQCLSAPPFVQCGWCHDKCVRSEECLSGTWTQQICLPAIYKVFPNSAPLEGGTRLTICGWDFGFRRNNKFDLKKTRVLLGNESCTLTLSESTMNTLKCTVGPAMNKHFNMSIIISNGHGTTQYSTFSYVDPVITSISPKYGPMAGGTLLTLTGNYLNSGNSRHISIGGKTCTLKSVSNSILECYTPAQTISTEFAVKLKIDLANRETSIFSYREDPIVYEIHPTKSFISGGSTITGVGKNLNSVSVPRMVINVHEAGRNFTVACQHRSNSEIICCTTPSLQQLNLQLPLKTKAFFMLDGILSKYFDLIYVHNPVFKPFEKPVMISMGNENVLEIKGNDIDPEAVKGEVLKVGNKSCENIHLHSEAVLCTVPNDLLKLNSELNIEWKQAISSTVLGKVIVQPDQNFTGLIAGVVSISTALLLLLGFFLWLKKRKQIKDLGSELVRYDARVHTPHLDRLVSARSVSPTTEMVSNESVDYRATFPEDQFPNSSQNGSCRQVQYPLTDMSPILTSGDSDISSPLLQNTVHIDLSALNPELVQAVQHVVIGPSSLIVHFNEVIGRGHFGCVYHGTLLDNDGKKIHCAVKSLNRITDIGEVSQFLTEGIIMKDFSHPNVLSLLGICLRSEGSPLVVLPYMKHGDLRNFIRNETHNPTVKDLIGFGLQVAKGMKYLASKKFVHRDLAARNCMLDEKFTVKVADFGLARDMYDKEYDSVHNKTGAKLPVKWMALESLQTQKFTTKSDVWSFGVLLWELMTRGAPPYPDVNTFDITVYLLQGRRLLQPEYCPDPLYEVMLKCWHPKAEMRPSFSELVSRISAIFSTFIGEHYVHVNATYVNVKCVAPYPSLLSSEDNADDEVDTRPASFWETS
How it was run: as §1

PIK3CA(E545K) = target: T4, PIK3CA(E545K) (Homo sapiens, UniProt P42336, E545K); conditions: read-out: % control
T4 construct: purchased KinomeScan® (panel service)
T4 sequence (P42336 whole entry E545K): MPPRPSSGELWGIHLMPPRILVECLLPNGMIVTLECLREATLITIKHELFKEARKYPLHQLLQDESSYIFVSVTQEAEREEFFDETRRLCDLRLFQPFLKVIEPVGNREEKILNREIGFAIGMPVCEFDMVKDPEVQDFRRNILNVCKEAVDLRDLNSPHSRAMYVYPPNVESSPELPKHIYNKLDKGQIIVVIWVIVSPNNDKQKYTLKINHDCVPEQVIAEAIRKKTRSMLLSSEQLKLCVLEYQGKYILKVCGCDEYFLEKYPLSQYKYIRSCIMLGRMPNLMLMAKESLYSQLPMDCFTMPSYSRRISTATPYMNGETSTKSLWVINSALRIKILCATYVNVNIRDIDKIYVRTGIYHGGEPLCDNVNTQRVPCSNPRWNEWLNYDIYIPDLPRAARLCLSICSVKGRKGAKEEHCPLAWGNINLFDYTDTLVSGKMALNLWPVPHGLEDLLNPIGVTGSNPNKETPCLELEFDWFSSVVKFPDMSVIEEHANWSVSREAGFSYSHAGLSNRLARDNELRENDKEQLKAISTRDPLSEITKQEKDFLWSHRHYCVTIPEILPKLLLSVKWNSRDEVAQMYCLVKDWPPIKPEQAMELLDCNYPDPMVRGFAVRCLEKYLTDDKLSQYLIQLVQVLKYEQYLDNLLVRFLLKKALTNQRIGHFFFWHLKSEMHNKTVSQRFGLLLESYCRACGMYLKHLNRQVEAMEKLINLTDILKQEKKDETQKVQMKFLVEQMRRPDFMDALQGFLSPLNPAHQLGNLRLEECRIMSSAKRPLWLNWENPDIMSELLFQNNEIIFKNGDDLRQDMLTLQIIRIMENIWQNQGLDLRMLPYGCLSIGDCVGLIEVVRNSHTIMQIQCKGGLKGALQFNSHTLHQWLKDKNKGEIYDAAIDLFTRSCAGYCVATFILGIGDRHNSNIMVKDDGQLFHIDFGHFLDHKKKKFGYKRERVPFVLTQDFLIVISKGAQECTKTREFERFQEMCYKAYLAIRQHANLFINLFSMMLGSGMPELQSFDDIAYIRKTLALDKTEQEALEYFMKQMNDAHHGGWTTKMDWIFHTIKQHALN
How it was run: as §1

[2] = target: T5, RPS6KA5(Kin.Dom.1-N-terminal) (Homo sapiens, UniProt O75582); conditions: read-out: % control
T5 construct: RPS6KA5(Kin.Dom.1-N-terminal)
T5 sequence (O75582 49-318 limits assumed): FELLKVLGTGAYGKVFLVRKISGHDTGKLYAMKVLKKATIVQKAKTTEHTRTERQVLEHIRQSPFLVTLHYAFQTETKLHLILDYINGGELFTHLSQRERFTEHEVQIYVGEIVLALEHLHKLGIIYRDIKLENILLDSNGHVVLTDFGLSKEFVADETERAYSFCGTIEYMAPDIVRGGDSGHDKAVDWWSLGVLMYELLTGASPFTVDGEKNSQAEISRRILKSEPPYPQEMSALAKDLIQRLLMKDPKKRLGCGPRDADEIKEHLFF
How it was run: as §1

SNRK = target: T6, SNRK (Homo sapiens, UniProt Q9NRH2); conditions: read-out: % control
T6 construct: purchased KinomeScan® (panel service)
T6 sequence (Q9NRH2 1-765): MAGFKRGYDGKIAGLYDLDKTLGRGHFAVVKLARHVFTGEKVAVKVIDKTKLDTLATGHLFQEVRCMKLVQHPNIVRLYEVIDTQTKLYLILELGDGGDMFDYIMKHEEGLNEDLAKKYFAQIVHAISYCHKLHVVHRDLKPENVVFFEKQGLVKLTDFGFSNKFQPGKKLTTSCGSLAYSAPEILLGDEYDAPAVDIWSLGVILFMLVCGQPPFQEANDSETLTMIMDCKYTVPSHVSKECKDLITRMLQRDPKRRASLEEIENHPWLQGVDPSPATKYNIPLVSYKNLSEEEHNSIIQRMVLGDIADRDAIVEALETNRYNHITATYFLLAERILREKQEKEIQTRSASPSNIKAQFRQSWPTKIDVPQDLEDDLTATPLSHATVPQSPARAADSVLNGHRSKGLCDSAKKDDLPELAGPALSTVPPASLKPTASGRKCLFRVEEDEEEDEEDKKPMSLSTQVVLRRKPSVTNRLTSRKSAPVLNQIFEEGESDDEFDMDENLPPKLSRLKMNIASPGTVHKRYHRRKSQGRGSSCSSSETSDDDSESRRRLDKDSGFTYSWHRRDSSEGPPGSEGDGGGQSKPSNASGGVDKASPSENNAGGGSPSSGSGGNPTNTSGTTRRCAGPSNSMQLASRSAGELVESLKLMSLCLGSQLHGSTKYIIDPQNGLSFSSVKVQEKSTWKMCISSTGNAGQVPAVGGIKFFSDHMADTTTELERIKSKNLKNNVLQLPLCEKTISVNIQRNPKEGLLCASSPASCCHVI
How it was run: as §1

p38-delta = target: T7, p38-delta (Homo sapiens, UniProt O15264); conditions: read-out: % control
T7 sequence (O15264 1-365): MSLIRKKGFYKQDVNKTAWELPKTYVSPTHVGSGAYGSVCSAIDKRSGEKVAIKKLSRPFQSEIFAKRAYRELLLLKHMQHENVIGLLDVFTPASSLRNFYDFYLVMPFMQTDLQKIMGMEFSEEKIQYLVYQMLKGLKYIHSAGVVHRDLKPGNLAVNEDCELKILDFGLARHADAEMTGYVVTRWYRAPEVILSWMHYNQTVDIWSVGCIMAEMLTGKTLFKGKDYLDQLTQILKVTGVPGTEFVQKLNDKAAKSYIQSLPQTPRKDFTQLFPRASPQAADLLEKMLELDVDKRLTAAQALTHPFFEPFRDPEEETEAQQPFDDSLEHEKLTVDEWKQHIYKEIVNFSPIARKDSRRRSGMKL
How it was run: as §1

Sequence of CDK4-cyclinD3 (P11802 whole entry): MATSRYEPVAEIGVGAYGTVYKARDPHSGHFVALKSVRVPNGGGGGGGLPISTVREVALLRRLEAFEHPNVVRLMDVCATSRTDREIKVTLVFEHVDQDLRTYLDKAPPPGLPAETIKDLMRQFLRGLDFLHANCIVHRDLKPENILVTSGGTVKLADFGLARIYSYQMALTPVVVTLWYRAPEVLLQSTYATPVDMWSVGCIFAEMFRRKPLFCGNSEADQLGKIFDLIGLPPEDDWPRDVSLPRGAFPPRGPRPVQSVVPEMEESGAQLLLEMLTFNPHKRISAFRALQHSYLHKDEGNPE
Sequence of CDK4-cyclinD3 (P30281 whole entry partner): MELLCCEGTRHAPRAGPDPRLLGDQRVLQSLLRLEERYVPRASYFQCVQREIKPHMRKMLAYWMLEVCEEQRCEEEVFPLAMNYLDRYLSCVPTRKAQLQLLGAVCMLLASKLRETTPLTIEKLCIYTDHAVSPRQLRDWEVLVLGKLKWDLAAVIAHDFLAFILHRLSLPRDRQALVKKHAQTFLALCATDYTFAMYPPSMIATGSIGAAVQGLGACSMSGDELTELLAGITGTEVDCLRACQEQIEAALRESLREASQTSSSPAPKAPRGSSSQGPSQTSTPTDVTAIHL

| Compound | remaining binding at 1 µM (CDK4-cyclinD3) [%] | remaining binding at 1 µM (GRK2) [%] | remaining binding at 1 µM [1] [%] | remaining binding at 1 µM (KIT(L576P)) [%] | remaining binding at 1 µM (MET(Y1235D)) [%] | remaining binding at 1 µM (PIK3CA(E545K)) [%] | remaining binding at 1 µM [2] [%] | remaining binding at 1 µM (SNRK) [%] | remaining binding at 1 µM (p38-delta) [%] |
| --- | --- | --- | --- | --- | --- | --- | --- | --- | --- |
| CNc1c(-c2ccc(C(=O)N3CCC(N4CCOCC4)CC3)cc2)cnc2[nH]cc(Cl)c12 [Compound 96, (4-(3-chloro-4-(methylamino)-1H-pyrrolo[2,3-b]pyridin-5-yl)phenyl)(4-morpholinopiperidin-1-yl)methanone] | 100 | 94 | 94 | 19 | 83 | 31 | 100 | 100 | 99 |
| O=C(c1ccc(-c2cnc3[nH]cc(Cl)c3c2NC2CCCC2)cc1)N1CCC(N2CCOCC2)CC1 [Compound 101, (4-(3-chloro-4-(cyclopentylamino)-1H-pyrrolo[2,3-b]pyridin-5-yl)phenyl)(4-morpholinopiperidin-1-yl)methanone] | 99 | 100 | 47 | 46 | 30 | 79 | 90 | 100 | 94 |
| CNc1c(-c2cnn([C@H]3CCN(C(C)=O)C[C@@H]3F)c2)cnc2[nH]cc(Cl)c12 [Compound 77, 1-((3S,4S)-4-(4-(3-chloro-4-(methylamino)-1H-pyrrolo[2,3-b]pyridin-5-yl)-1H-pyrazol-1-yl)-3-fluoropiperidin-1-yl)ethan-1-one] | 98 | 93 | 57 | 10 | 56 | 18 | 100 | 100 | 96 |
